Data taken from PMC6130489, “Caffeic acid methyl and ethyl esters exert potential antidiabetic effects on glucose and lipid metabolism in cultured murine insulin-sensitive cells through mechanisms implicating activation of AMPK” (Pharmaceutical Biology, 2017).

Assays:
Akt [1] = experiment: Western immunoblot phospho-Akt in 3T3-L1 adipocytes; type: cell-based, mouse; details: 100 μM (Figure 4 legend)
Method: Insulin (100 nM) or aminoimidazole carboxamide ribonucleotide (AICAR; 1 mM) were added to some vehicle-treated wells 30 min prior to the end of the treatment and served as the positives controls. Protein content was assayed by the bicinchoninic acid method (Thermo Scientific Pierce Protein Research, Rockford, IL) standardized to bovine serum albumin. Western immunoblotting was performed as described elsewhere (Eid et al. [2010]). Membranes were incubated overnight with phospho-AMPK, phospho-Akt, GLUT4, GLUT1 and β-actin antibodies (1:1000 dilution, Cell Signalling Technology, Danvers, MA), or with PPAR-γ, SREBP-1 (1:200, Santa Cruze Biotechnology, Santa Cruz, CA), followed by incubation with HRP-coupled secondary antibody (1:10,000) for 1 h. Immunoreactive bands were visualized by enhanced chemiluminescence and quantified by the Scion Image program (Scion Corporation, Frederick, MD). Experiments were repeated on 3 different passages of cells, each passage containing all conditions in parallel.
Figure 4. CAME and CAEE inhibit C/EBP-β and PPAR-γ protein expression through mechanisms implicating AMPK pathway. Shown are representative blots of 3T3-adipocytes treated with the maximum nontoxic concentration (100 μM) of either CAME or CAEE. […] Data are expressed as C/EBP-β/β-actin (D), PPAR-γ/β-actin (E), phospho-Akt/pan-Akt (F) and phospho-AMPK/pan-AMPK (G). […]

3T3-L1 pre-adipocytes = experiment: Thymidine incorporation assay (mitotic clonal expansion); type: cell-based; details: Mus musculus, 3T3-L1 cells undergoing mitotic clonal expansion; for IC50: read-out: thymidine incorporation inhibition IC50
Method: To assess for the inhibitory activity of CAME and CAEE on and mitotic clonal expansion of 3T3-L1 adipocytes, cells were separately treated with 12.5, 25, 50 and 100 μM of CAME or CAEE for […] in differentiation media and the incorporation of radio-labeled methyl-^3H-thymidine (MP Biomedicals cat #240410, Irvine, CA) into the newly replicated DNA was measured as described elsewhere (Martineau et al. [2010]). The incorporated radioactivity was measured in a liquid scintillation counter (LKB Wallac 1219 Rackbeta; Perkin Elmer Life and Analytical Sciences, Inc., Boston, MA).
Figure 3. (A and B) Anti-adipogenic effect of CAME and CAEE in 3T3-L1 adipocytes. Cells were treated with several concentrations (12.5, 25, 50 and100 μM) of either CAME or CAEE in DMEM containing 10% FBS and the standard adipogenic cocktail (500 μM 3-isobutyl-1-methylxanthine, 500 nM insulin and 10 μM dexamethasone) for 2 days then in DMEM containing 10% FBS and 500 nM insulin starting from days 2-8 of differentiation. This medium was changed every 2 days. (A) On day 8, lipid content was measured by AdipoRed assay. Results represent the means ± SEM of three independent experiments. *Indicates a significant (p ≤ 0.05) difference, **(p < 0.01), ***(p < 0.001) from the vehicle control group. […] Vehicle-treated cells show the presence of lipid droplets. On the other hand, cells treated with the maximum nontoxic concentration (100 μM) of either CAME or CAEE retained the fibroblast-like morphology of pre-adipocytes and were devoid of lipid droplets. (C) CAME and CAEE inhibit pre-adipocyte clonal expansion. Confluent 3T3-L1 pre-adipocytes undergoing clonal expansion in response to differentiation cues were treated with vehicle or 12.5, 25, 50 and 100 μM of either CAME or CAEE for 20 h and incorporation of ^3H-labeled thymidine was measured. Normalized data are presented as mean ± SEM of three independent experiments. **Indicates a significant (p ≤ 0.01) difference, ***(p < 0.001) from the vehicle control group.

Akt [2] = experiment: Western immunoblot phospho-Akt in H4IIE cells; type: cell-based, rat; details: 50 μM, 18 h
Method: L6 cells myotubes, H4IIE cells and 3T3-L1 adipocytes were treated with either CAME, CAEE (50 μM each) or vehicle (DMSO) for 18 h. Insulin (100 nM) or aminoimidazole carboxamide ribonucleotide (AICAR; 1 mM) were added to some vehicle-treated wells 30 min prior to the end of the treatment and served as the positives controls. Protein content was assayed by the bicinchoninic acid method (Thermo Scientific Pierce Protein Research, Rockford, IL) standardized to bovine serum albumin. Western immunoblotting was performed as described elsewhere (Eid et al. [2010]). […] Immunoreactive bands were visualized by enhanced chemiluminescence and quantified by the Scion Image program (Scion Corporation, Frederick, MD). […]
Figure 2. […] (A) H4IIE hepatocytes were treated for 16 h with several concentrations (12.5, 25, 50 and100 μM) of either CAME or CAEE and G6Pase activity was determined colorimetrically using a commercial glucose assay kit as described under Materials and Methods. […] (D) Data are expressed as phospho-AMPK/pan-AMPK and are given as mean ± SEM from 3 experiments. *p < 0.05 indicates a significant difference, **(p < 0.01), ***(p < 0.001) from the vehicle control group.

Compound | Akt phosphorylation (Akt [1]) | IC50 (3T3-L1 pre-adipocytes) | inhibition at 100 µM (3T3-L1 pre-adipocytes) | phosphorylation of Akt (Akt [2])
COC(=O)/C=C/c1ccc(O)c(O)c1 [CAME, CA methyl ester] | did not modulate | 39.4 µM | 92.7 ± 2.6% | did not increase
CCOC(=O)/C=C/c1ccc(O)c(O)c1 [CAEE, caffeic acid ethyl ester] | did not modulate | 13.1 µM | 86.9 ± 3% | did not increase
